Patent publication US10787477B2, “Solid form of 4′-thio-2′-fluoronucleoside phosphamide compound and preparation method therefor and use thereof” (SICHUAN KELUN-BIOTECH BIOPHARMACEUTICAL CO., LTD., priority 2016, dated 2020)
Values after ≈ are worked out from the molar mass of the structure shown.

How the values were obtained:
[1] = Stability relationship (slurry of crystalline forms in water pre-saturated with form A); format: physicochemical; details: slurried in H2O pre-saturated with crystalline form A, room temperature, about 4 days
Experimental: An equal weight of each of crystalline forms A, B and D (8 mg each) was weighed and respectively added to a H2O solution (0.3 ml) pre-saturated with a sample of crystalline form A at room temperature, and the resulting suspension was slurried at room temperature for about 4 days before isolation of the solid. The wet and dry samples were respectively subjected to XRPD pattern detection.

[2] = Equilibrium solubility study in deionized water; format: physicochemical; details: for crystal transformation (XRPD of the solid): dispersed in water for 24 hours
Experimental: About 2.0 to 5.0 mg of each of crystalline form A, crystalline form B and crystalline form D of the compound of Formula (I) was weighed, added to a 3 ml vial, and added with 1.0 ml of deionized water. The resulting suspension was then placed in a rotary incubator (rotation speed was 25 rpm), and equilibrated in a biochemical incubator at 25° C. for 24 hours before 0.8 ml of the suspension was taken. The suspension was centrifuged (6000 rpm, 15 minutes), the supernatant was detected by HPLC for solubility, and the XRPD pattern of the solid was detected.

[3] = Drug excretion experiment in mice (radioactivity recovery in urine and feces); format: in vivo, ICR mice
Experimental: Crystalline form A having a radioisotope ([^14C] crystalline form A) is formulated as a suspension in 0.5% sodium carboxymethylcellulose (CMC-Na), and ICR mice were administered by single gavage at a dose of 117 μCi/4.08 mg/kg [^14C] crystalline form A. The absorption and excretion characteristics of crystalline form A were examined by measuring the radioactivity recovery in urine and feces.

High humidity experiment = format: physicochemical; details: 25° C. and RH 75%
Experimental: Crystalline form A of the compound of Formula (I) was placed under a high humidity condition of 25° C. and RH 75% for 30 days, and samples were taken at Day 0, 5, 10, and 30, respectively, to observe changes in the properties of the samples. The specific optical rotation was measured with a polarimeter, the loss on drying was measured, and the total impurity content was measured by HPLC.

[4] = Pharmacokinetic experiment in mice; format: in vivo, ICR mice; details: single gavage
Experimental: Crystalline form A of the compound of Formula (I) was formulated as a suspension in 0.5% sodium carboxymethylcellulose (CMC-Na), and ICR mice were administered by single gavage to investigate the pharmacokinetic characteristics. The single gavage doses were 2 mg/kg, 4 mg/kg and 8 mg/kg, respectively.
The pharmacokinetic parameters were each calculated according to the concentration-time curve of metabolite I in plasma.

Light experiment = format: physicochemical; details: light intensity of 4500 1×, 25° C., RH 25%
Experimental: Crystalline form A of the compound of Formula (I) was placed under the conditions of a light intensity of 4500 1×, 25° C., and RH 25% for 30 days, and samples were taken on Day 0, 5, 11 and 30, respectively, to observe changes in the properties of the samples. The specific optical rotation was measured with a polarimeter, the loss on drying was measured, and the total impurity content was measured by HPLC.

[5] = Solid state stability at 40° C./75% RH; format: physicochemical; details: open container, 8 days
Experimental: A suitable amount of crystalline form A of the compound of Formula (I) was weighed as a test sample, and it was left in an open container for 8 days under conditions of 40° C./75% RH (RH means relative humidity). The XRPD pattern of the test sample after the treatment was detected, and the purity was measured by HPLC.

[6] = High temperature experiment; format: physicochemical; details: 60° C.
Experimental: Crystalline form A of the compound of Formula (I) was allowed to stand at a high temperature of 60° C. for 30 days, and samples were taken at Day 0, 5, 10, and 30, respectively, to observe changes in the properties of the samples. The specific optical rotation was measured with a polarimeter, the loss on drying was measured, and the total impurity content was measured by HPLC.

[7] = Pharmacokinetic experiment in beagle dogs; format: in vivo; details: single gavage
Experimental: Crystalline form A of the compound of Formula (I) was formulated as a suspension in 0.5% CMC-Na, and administered by single gavage to beagle dogs. The single gavage doses were 0.1 mg/kg, 0.2 mg/kg and 0.4 mg/kg, respectively.

[8] = inferred from urine radioactivity recovery

Compound: CC(C)OC(=O)[C@H](C)N[P@](=O)(OC[C@H]1S[C@@H](n2ccc(N)nc2=O)[C@@H](F)[C@@H]1O)Oc1ccccc1 [crystalline form B, (S)-isopropyl 2-(((S)-(((2R,3S,4S,5R)-5-(4-amino-2-oxopyrimidin-1(2H)-yl)-4-fluoro-3-hydroxytetrahydrothiophen-2-yl)methoxy)(phenoxy)phosphoryl)amino)propanoate]
- stability relationship / conversion of crystalline form (XRPD) [1]: converted to crystalline form A
- solubility in water ([2]; deionized water, 25° C., after 24 hours, HPLC): ~1800 µg/mL (≈ 3390 µM)
- crystal transformation (XRPD of the solid) ([2]; 25° C.): did not undergo crystal transformation

Compound: CC(C)OC(=O)[C@H](C)N[P@](=O)(OC[C@H]1S[C@@H](n2ccc(N)nc2=O)[C@@H](F)[C@@H]1O)Oc1ccccc1 [[^14C] crystalline form A]
- radioactivity recovery in urine ([3]; single gavage 117 μCi/4.08 mg/kg, within 0 to 120 hours): 78.7%
- radioactive substances excreted in urine and feces, of the administered amount ([3]; single gavage, within 48 hours after administration): 84.5%

Compound: CC(C)OC(=O)[C@H](C)N[P@](=O)(OC[C@H]1S[C@@H](n2ccc(N)nc2=O)[C@@H](F)[C@@H]1O)Oc1ccccc1 [crystalline form D, (S)-isopropyl 2-(((S)-(((2R,3S,4S,5R)-5-(4-amino-2-oxopyrimidin-1(2H)-yl)-4-fluoro-3-hydroxytetrahydrothiophen-2-yl)methoxy)(phenoxy)phosphoryl)amino)propanoate]
- stability relationship / conversion of crystalline form (XRPD) [1]: converted to crystalline form A
- crystal transformation (XRPD of the solid) ([2]; 25° C.): underwent crystal transformation

Compound: CC(C)OC(=O)[C@H](C)N[P@](=O)(OC[C@H]1S[C@@H](n2ccc(N)nc2=O)[C@@H](F)[C@@H]1O)Oc1ccccc1 [crystalline form A, (S)-isopropyl 2-(((S)-(((2R,3S,4S,5R)-5-(4-amino-2-oxopyrimidin-1(2H)-yl)-4-fluoro-3-hydroxytetrahydrothiophen-2-yl)methoxy)(phenoxy)phosphoryl)amino)propanoate]
- appearance (High humidity experiment; 30 days): no change in the appearance
- variation in the specific optical rotation (High humidity experiment; Day 0 to Day 30): ≤ 1 °
- loss on drying % (High humidity experiment; different time points): ≤ 1.0%
- total impurity content detected by HPLC (High humidity experiment; different time points): remained substantially unchanged
- stability relationship / conversion of crystalline form (XRPD) [1]: more stable at room temperature
- solubility at 24 h ([2]; deionized water, 25 °C, water, thermodynamic from solid, deionized water, after 24 hours, HPLC): ~1000 µg/mL (≈ 1880 µM)
- crystal transformation (XRPD of the solid) ([2]; 25° C.): did not undergo crystal transformation
- metabolism upon entering the body [4]: rapidly metabolized as pharmacologically active metabolite I
- absolute bioavailability by intragastric administration [3, 8]: above 78.7%
- proportion of the drug ingredient absorbed into the blood by oral administration [3, 8]: at least 78.7%
- appearance (Light experiment; 30 days): no change in the appearance
- variation in the specific optical rotation (Light experiment; Day 0 to Day 30): ≤ 3 °
- loss on drying % (Light experiment; different time points): ≤ 1.0%
- total impurity content detected by HPLC (Light experiment; different time points): remained substantially unchanged
- crystal transformation (XRPD) [5]: did not undergo crystal transformation
- relative purity of the sample (HPLC) [5]: 99.9%
- appearance ([6]; 30 days): no change in the appearance
- variation in the specific optical rotation ([6]; Day 0 to Day 30): ≤ 2 °
- loss on drying % ([6]; different time points): ≤ 1.07%
- total impurity content detected by HPLC ([6]; different time points): remained substantially unchanged
- metabolism upon entering the body [7]: rapidly metabolized as pharmacologically active metabolite I
